# US20250250218A1, “Anti-Amyloidogenic Curcumin Analogues” (MCPHS University, priority 2024, published 2025)
# Legend:
# Aβ1-42 peptide = Aβ1-42 peptide (Homo sapiens, UniProt P05067); assay: Thioflavin T (ThT) fluorescence assay of Aβ1-42 aggregation (SensoLyte kit); format: biochemical; conditions: Aβ1-42 35 μM, minimum of five concentrations, read-out: IC50, inhibition of Aβ aggregation (anti-amyloidogenic activity)
# Description: All newly synthesized compounds were screened for their anti-amyloidogenic activity on Aβ1-42 peptides, using Phenol Red as the internal standard—all at 100 μM. […] To obtain the IC50 values (shown in FIGS. 4A-4D), all compounds were tested at a minimum of five different concentrations.
# Samples of ThT (final concentration of 200 μM) and Aβ1-42 peptide (final concentration of 35 μM) were incubated at 37° C. in a black clear bottom 96-well plate. The ThT fluorescence intensity of each sample was immediately measured every 5 min for 120 min, with 440/485 nm excitation/emission filters and with 15 sec shaking between reads to facilitate aggregation. An inhibitor control containing Aβ1-42 and a supplied aggregation inhibitor (Phenol Red), at a final concentration of 100 μM. The positive control contained Aβ1-42 without an inhibitor. […] All the wells were brought to 100 μL as a final volume.
# [1] = tested on: Drosophila melanogaster UAS-Aβ 1-42/nSyb-Gal4; assay: Forced climbing assay in transgenic flies overexpressing Aβ; format: in vivo
# Description: To produce the transgenic Drosophila line of interest, UAS-Aβ42 1-42 female virgins were crossed with nSyb-Gal4 males. UAS-Aβ42 1-42 has a TM3, Sb balancer on the third chromosome, resulting in the mutant Sb gene, indicative of stubble bristles as a dominant marker. When crossed with the driver line, such as nSyb-Gal4, the transgenic line will either be UAS-Aβ42 1-42/nSyb-Gal4 or nSyb-Gal4/TM3, Sb. […] All offspring with the inherited balanced nSyb-Gal4TM3, Sb were negatively selected. Once enough F1 progeny of the transgenic line of interest were available, testing of the compounds was carried out. The extended chalcones of interest were dissolved in DMSO to a concentration of 5 mg/mL. […] These three concentrations were then introduced to each respective group. […] A forced climbing assay was conducted on the transgenic flies exposed to the extended chalcone compounds. […] The climbing assay was conducted five times a day, beginning on the seventh day after the flies were exposed to the compounds. Vials were marked with top, middle, and bottom sections, separated by one inch.
# Aβ42 = assay: Human Aβ42 ELISA on heads of treated transgenic flies; format: in vivo; conditions: any concentration fed (1, 10, 100 mcg/mL)
# Description: To perform the ELISA, the samples were first thawed on ice. A protease inhibitor cocktail with AEBSF (a serine protease inhibitor) was added to each sample, with a final concentration of 1 mM, and were then centrifuged to remove the large particulate matter. After centrifugation, samples were diluted with Standard Diluent Buffer at a 1:50 ratio to ensure sample concentrations would be within the range of the standard curve. […] After 30 min, the solution was thoroughly aspirated, and the wells were washed four times with Ix Wash Buffer. Stabilizing Chromogen (100 mcL) was added to each well and the plate was incubated in the dark. After 30 min, 100 mcL of the Stop Solution was added to every well and the plate was read immediately at an absorbance of 450 nm.
# Absorbance measurements for each sample and control were averaged, and from the calibration curve the corresponding level of AB was determined. Data were analyzed using a one-way ANOVA. […] Thus, the physiological benefit observed when the flies were fed either Compound 25, 33, or 34 at varying concentrations, was most likely a result of a decrease in brain plaque burden.
# SH-SY5Y cells = assay: MTT cell viability assay (neurotoxicity and neuroprotection); conditions: 48 h; for decrease in cell viability, compound co-administered with Aβ42: compound at IC50 concentration + Aβ42 20 μM, Aβ42 alone […]%; for cytotoxicity / neurotoxicity of compound alone: compound at its IC50 concentration
# Description: To test neurotoxicity and neuroprotective effects of the compounds, a 3-(4,5-dimethylthiazol-2-yl)-2,5-diphenyltetrazolium bromide (MTT) assay was performed using compounds 25, 33, and 34 as described [8].
# SH-SY5Y cells (CRL-2266, ATCC, Manassas, VA) were maintained in SH-SY5Y cells (CRL-2266, ATCC, Manassas, VA, USA) were maintained in Dulbecco's Modified Eagle's Medium and Ham's F-12 Medium (DMEM: F12) supplemented with 50 mL fetal bovine serum (10%) and incubated at 37° C., 5% CO2, and 90% humidity. For the MTT assay, cells were sub-cultured using trypsin-ethylenediaminetetraacetic acid (EDTA) (0.25%) solution into clear 96-well plates and allowed to adhere for 24 h. […] All groups were incubated for 48 h.
# The MTT assay (Ab211091, Abcam, Waltham, MA, USA) was used to measure cell viability with metabolically active cells reducing the MTT reagent into insoluble formazan. Following the removal of the treatment media, 50 μL of serum-free media and 50 riL of MTT Reagent was added to each well. The plate was then incubated at 37° C. for 3 h. After incubation, 150 μL of MTT Solvent was added into each well. The plate was then wrapped in foil and placed on an orbital plate shaker for 15 min. The absorbance was read at 590 nm.
# [2] = 1 mcg/mL fly food, control 4.33%
# [3] = 1 mcg/mL fly food, control approximately 95%
# Chain of Aβ1-42 peptide (P05067 672-713 limits assumed): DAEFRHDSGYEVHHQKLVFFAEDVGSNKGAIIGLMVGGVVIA
IC50 (Aβ1-42 peptide),Compound,percentage of flies in bottom section after 10 s ([1]; 10 mcg/mL fly food),percentage of flies in middle section after 10 s ([1]; 10 mcg/mL fly food),"percentage climbing compared to control, middle, 95% CI ([1]; 10 mcg/mL, FIG. 8)",change in levels of Aβ in fly heads (ELISA) (Aβ42),"decrease in cell viability, compound co-administered with Aβ42 (SH-SY5Y cells)",cytotoxicity / neurotoxicity of compound alone (SH-SY5Y cells),"percentage of flies in middle section after 10 s [1, 2]","percentage of flies in bottom section after 10 s [1, 3]","percentage climbing compared to control, bottom, 95% CI ([1]; 1 mcg/mL, FIG. 8)","percentage climbing compared to control, middle, 95% CI ([1]; 1 mcg/mL, FIG. 8)",also measured
0.91 µM,"CN(C)c1ccc(/C=C/C=C/C(=O)c2cc(Cl)cc(Cl)c2)cc1 [Compound 25, (2E,4E)-1-(3,5-dichlorophenyl)-5-(4-(dimethylamino)phenyl)penta-2,4-dien-1-one]",–,–,–,no statistically significant change,52%,no cytotoxicity,15.56%,82.15%,1.543-24.82,−18.97-−3.487,–
1.1 µM,"O=C(/C=C/C=C/c1ccc(N2CCCCC2)cc1)c1ccc(Cl)cc1 [Compound 33, (2E,4E)-1-(4-chlorophenyl)-5-(4-(piperidin-1-yl)phenyl)penta-2,4-dien-1-one]",74.00%,22.33%,−26.04-−9.964,no statistically significant change,52%,no cytotoxicity,26.00%,66.00%,18.63-40.04,−29.70-−13.63,"percentage of flies in top section after 10 s ([1]; 1 mcg/mL fly food, control 0.33%): 8.00%; percentage climbing compared to control, top, 95% CI ([1]; 1 mcg/mL, FIG. 8): −12.8-−2.516; percentage climbing compared to control, bottom, 95% CI ([1]; 10 mcg/mL, FIG. 8): 10.63-32.04"

# The remaining lines, values behind:
Compound,IC50 (Aβ1-42 peptide),percentage of flies in bottom section after 10 s ([1]; 10 mcg/mL fly food),percentage of flies in middle section after 10 s ([1]; 10 mcg/mL fly food),"percentage climbing compared to control, middle, 95% CI ([1]; 10 mcg/mL, FIG. 8)",change in levels of Aβ in fly heads (ELISA) (Aβ42),"decrease in cell viability, compound co-administered with Aβ42 (SH-SY5Y cells)",cytotoxicity / neurotoxicity of compound alone (SH-SY5Y cells),"percentage of flies in middle section after 10 s [1, 2]","percentage of flies in bottom section after 10 s [1, 3]","percentage climbing compared to control, bottom, 95% CI ([1]; 1 mcg/mL, FIG. 8)","percentage climbing compared to control, middle, 95% CI ([1]; 1 mcg/mL, FIG. 8)",also measured
"CSc1ccc(C(=O)/C=C/C=C/c2ccc(N(C)C)cc2)cc1 [Compound 18, (2E,4E)-5-(4-(dimethylamino)phenyl)-1-(4-(methylthio)phenyl)penta-2,4-dien-1-one]",1.5 µM,–,–,–,–,–,–,–,–,–,–,–
"(2E,4E)-1-(4-chlorophenyl)-5-(4-(piperidin-1-yl)phenyl)penta-2,4-dien-1-one [Compound 34]",0.62 µM,82.50%,15.00%,−18.78-−2.558,no statistically significant change,60%,no cytotoxicity,–,–,–,–,"percentage of flies in bottom section after 10 s ([1]; 100 mcg/mL fly food): 81.26%; percentage of flies in middle section after 10 s ([1]; 100 mcg/mL fly food): 14.90%; percentage climbing compared to control, bottom, 95% CI ([1]; 100 mcg/mL, FIG. 8): 3.395-24.75; percentage climbing compared to control, middle, 95% CI ([1]; 100 mcg/mL, FIG. 8): −18.67-−2.463"
"COc1ccc(C(=O)/C=C/C=C/c2ccc(N(C)C)cc2)cc1 [Compound 15, (2E,4E)-5-(4-(dimethylamino)phenyl)-1-(4-methoxyphenyl)penta-2,4-dien-1-one]",3.2 µM,–,–,–,–,–,–,–,–,–,–,–
CN(C)c1ccc(C=CC=CC(=O)c2ccc(Cl)cc2)cc1 [Compound 3],2.4 µM,–,–,–,–,–,–,–,–,–,–,–
